Laboratory results taken from patent publication US6287848A, “Dosage modeling system” (Johns Hopkins University, priority 1999, dated 2001).
Where two headings read alike, the source gives them in different places.

What was measured:
[1] = system: human T-lymphoblastic cell line CEM, infected with HIV; experiment: Intracellular and extracellular pharmacokinetic profiles of ZDV and its metabolites in hollow-fiber bioreactor dosing system (Example 2); assay type: in vitro ADME
Experimental: The bioreactor includes a cartridge of polypropylene capillaries that is commercially available from Unisyn Technologies, Inc. (Hopkinton, Mass.). The cells in the bioreactor are a human T-lymphoblastic cell line CEM, infected with HIV. The volume of distribution (VD), which is total amount of fluid in the loop 201 and the central reservoir 230, is 50 ml. The fast and slow pumps are Ismatic Peristaltic Pumps commercially available from Cole-Parmer (Niles, Ill.). The dosing element is a programmable dosing pump commercially available from Medex, Inc. (Deluth, Ga.).
The fast pump is operated at a flow rate of 35 ml/min. The dilution pump 218 is operated at a flow rate of 0.5 ml/min.
The drug Zidovudine (ZDV) is infused at four different dosing regimens for a dosing period of 24 hours, i.e., 0.1 μg/ml, continuously at 0.37 μM; 100 μg every 8 hours; 150 μg every 12 hours; and 300 μg at 24 hours. The control is operated without dosing ZDV.
Samples are removed through sampling port 272. Extracellular concentrations are determined from the fluid, and intracellular concentrations are determined after harvesting and treating the cells to extract the contents.
Drug concentration time curves allow the determination of Cmax, Cmin and AUC.
Thus, the AUCs are similar for the intracellular ZDV-diphosphate and intracellular ZDV-triphosphate.

[2] = system: HIV reverse transcriptase; settings: active metabolite; cited from earlier work

In the case of `Cc1cn([C@H]2C[C@H](N=[N+]=[N-])[C@@H](COP(=O)(O)OP(=O)(O)O)O2)c(=O)[nH]c1=O` [ZDV-diphosphate], the “intracellular AUCs across four dosing regimens” value [1] is reported as “similar” and the “intracellular concentration on increasing the dose of ZDV” value [1] is reported as “does not result in an increase”.

For `Cc1cn([C@H]2C[C@H](N=[N+]=[N-])[C@@H](COP(=O)(O)O)O2)c(=O)[nH]c1=O` [ZDV-monophosphate], the “intracellular concentration profiles across four dosing regimens” value ([1]; FIG. 11a-c, ZDV infused over 24 h: continuously at 0.37 μM, 100 μg every 8 hours, 150 μg every 12 hours, 300 μg at 24 hours) was “different profiles”, the “intracellular concentration on increasing the dose of ZDV” value ([1]; increasing the dose of ZDV) was “relative increase” and the “rate limiting step of intracellular ZDV phosphorylation” value ([1]; suggested by the data) was “rate limiting step is the conversion of ZDV-monophosphate to ZDV-iphosphate”.

With `Cc1cn([C@H]2C[C@H](N=[N+]=[N-])[C@@H](CO[P@](=O)(O)O[P@](=O)(O)OP(=O)(O)O)O2)c(=O)[nH]c1=O` [ZDV-triphosphate] the “amount of ZDV-triphosphate resulting from all four dosing regimens” value [1] was “same amount”, the “intracellular AUCs across four dosing regimens” value [1] was “similar” and the “intracellular concentration on increasing the dose of ZDV” value [1] was “does not result in an increase”. The “inhibits HIV reverse transcriptase, which results in the inhibition of HIV replication” value [2] was “inhibits HIV reverse transcriptase”.
